Test system: corticospinal neurons (CSNs/CSMNs)
Experiment: Laser-capture microdissection and Illumina microarray gene expression in corticospinal neurons contralateral to stroke
Type: in vivo, rat
Description: In a separate group of animals (n=20), layer V pyramidal cells of the sensorimotor cortex were retrogradely labeled by injecting Alexa-Fluor-488-conjugated cholera toxin B subunit (CTB; 300 U/μl in sterile saline) into the cervical spinal cord. For this, animals were anesthetized with a combination of ketamine and Domitor (medetomidine) and a laminectomy was performed at the cervical level of the spinal cord (C2-C4). CTB was stereotaxically delivered into four sites lateral to the corticospinal tract. Injections (1.3 μl) were spaced 1 mm apart on the rostro-caudal axis, and were made 0.5 mm to the left and right of the midline. After allowing two weeks for transport of the tracer, we performed either sham surgery with no treatment (n=6) or stroke surgery combined with saline (n=3) or inosine (n=4) treatment as described above. Seven days later, animals were decapitated under transient gas anesthesia, brains were removed and rinsed in cold RPMI medium, and a tissue block containing the sensorimotor cortex was dissected and placed in OCT Tissue Tek Medium (Sakura Finetek USA Inc., CA) on dry ice within five minutes of death. Ten μm sections were cut onto precleaned Gold Seal RITE-ON glass slides (Gold Seal Prod-ucts, Portsmouth, N.H.), placed on dry ice, and rapidly stored at −80° C.
Slide-mounted sections were thawed and dehydrated in RNAse-free ethanol gradients and xylene. Retro-gradely labeled, fluorescent cortical pyramidal cells in the undamaged hemisphere were individually captured using the Arcturus VERITAS system. ≧500 cells were collected from each animal and stored in Arcturus extraction buffer at −80° C. Total RNA was extracted from cells using the Micro-to-Midi TotalRNA Purification System (Invitrogen, Carlsbad Calif.) and double-amplified using the TargetAmp 2-Round Aminoallyl-aRNA Amplification kit 1.0 (Epicentre, Madison, Wis.). Amplified RNA was checked for average fragment length using the Agilent RNA 6000 Nano LabChip kit (Agilent Technologies, Santa Clara, Calif.) and then biotinylated and hybridized (1 μg) on Illumina RatRef-12 Expression BeadChip arrays (Illumina, San Diego Calif.), querying the expression of >22,000 RefSeq-curated rat transcripts. Results were obtained from a total of 15 samples representing 6 untreated controls, 4 animals with stroke treated with saline and 5 animals with stroke treated with inosine. Slides were processed and scanned with Illumina BeadStation platform according to the manufacturer protocol.
Raw data was analyzed using Bioconductor packages (www.bioconductor.org, (Gentleman et al., 2004)). Low level quality-control analysis was performed using inter-array Pearson correlation and clustering based on variance. Two arrays (1 saline and 1 inosine-treated) were outliers and were excluded from the analysis. Data was normalized using quantile normalization, and analysis of differential expression was performed using a linear model fitting (LIMMA package, (Smyth, 2005). Differentially expressed genes were classified according to gene ontology using Bioconductor packages and online tools (DAVID, http://david.abcc.ncifcrf.gov/). Pathway analysis was carried out using Ingenuity Pathway Analysis (Ingenuity Systems, www.ingenuity.com).

Structure (SMILES): OC[C@H]1O[C@@H](n2cnc3c(O)ncnc32)[C@H](O)[C@@H]1O [inosine]
- Fold-Induction Stroke, ino vs. cntrl, Hbld2 (ILMN_57967): 0.54
- Signal Intensity, Hbld2 (ILMN_57967, inosine after stroke): 1095
- Fold-Induction Stroke, ino vs. cntrl, LOC298490 (ILMN_58032): 0.62
- Signal Intensity, LOC298490 (ILMN_58032, inosine after stroke): 1407
- Fold-induction CSMNs: Lcp1 (ILMN_58058, over and above inosine's effect of decreasing stroke-induced changes): 2.68 fold
- Fold-Induction Stroke, ino vs. cntrl, LOC290549 (ILMN_58092): 0.54
- Signal Intensity, LOC290549 (ILMN_58092, inosine after stroke): 1870
- Fold-Induction Stroke, ino vs. cntrl, Rhob (ILMN_58180): 0.52
- Signal Intensity, Rhob (ILMN_58180, inosine after stroke): 276
- Fold-Induction Stroke, ino vs. cntrl, Gdap2 (ILMN_58290): 0.58
- Signal Intensity, Gdap2 (ILMN_58290, inosine after stroke): 319
- Fold-Induction, complement cascade gene C1qa (ILMN_58496, LCM-captured CSMNs contralateral a stroke): 2.03 fold
- Fold-induction CSMNs: C1qa (ILMN_58496, over and above inosine's effect of decreasing stroke-induced changes): 1.84 fold
- Fold-Induction Stroke, ino vs. cntrl, Rab11a (ILMN_58550): 0.56
- Signal Intensity, Rab11a (ILMN_58550, inosine after stroke): 1039
- Fold-Induction Stroke, ino vs. cntrl, LOC499088 (ILMN_58730): 0.59
- Signal Intensity, LOC499088 (ILMN_58730, inosine after stroke): 1089
- Fold-Induction Stroke, ino vs. cntrl, Dars (ILMN_58816): 0.76
- Signal Intensity, Dars (ILMN_58816, inosine after stroke): 349
- Fold-Induction, complement cascade gene Adn ((P) adipsin) (ILMN_58846, LCM-captured CSMNs contralateral a stroke): 5.81 fold
- Fold-Induction Stroke, ino vs. cntrl, Emb (ILMN_58897): 0.77
- Signal Intensity, Emb (ILMN_58897, inosine after stroke): 425
- Fold-Induction Stroke, ino vs. cntrl, Kifap3 (ILMN_59040): 0.64
- Signal Intensity, Kifap3 (ILMN_59040, inosine after stroke): 270
- Fold-induction CSMNs: Npc2 (ILMN_59161, over and above inosine's effect of decreasing stroke-induced changes): 1.73 fold
- Fold-Induction Stroke, ino vs. cntrl, Plcb1 (ILMN_59359): 0.59
- Signal Intensity, Plcb1 (ILMN_59359, inosine after stroke): 512
- Fold-induction CSMNs: Emp3 (ILMN_59412, over and above inosine's effect of decreasing stroke-induced changes): 2.20 fold
- Fold-Induction Stroke, ino vs. cntrl, LOC291762 (ILMN_59483): 0.52
- Signal Intensity, LOC291762 (ILMN_59483, inosine after stroke): 673
- Fold-Induction Stroke, ino vs. cntrl, LOC315840 (ILMN_59546): 0.85
- Signal Intensity, LOC315840 (ILMN_59546, inosine after stroke): 3649
- Fold-Induction, complement cascade gene C4-2 (ILMN_59751, LCM-captured CSMNs contralateral a stroke): 2.15 fold
- Fold-induction CSMNs: Ppp1r14b (ILMN_59774, over and above inosine's effect of decreasing stroke-induced changes): 1.74 fold
- Fold-Induction Stroke, ino vs. cntrl, Bcas2 (ILMN_59789): 0.91
- Signal Intensity, Bcas2 (ILMN_59789, inosine after stroke): 1103
- Fold-Induction Stroke, ino vs. cntrl, D123 (ILMN_59956): 0.76
- Signal Intensity, D123 (ILMN_59956, inosine after stroke): 607
- Fold-Induction Stroke, ino vs. cntrl, LOC497728 (ILMN_59964): 0.56
- Signal Intensity, LOC497728 (ILMN_59964, inosine after stroke): 1366
- Fold-induction CSMNs: Cd68 (ILMN_60003, over and above inosine's effect of decreasing stroke-induced changes): 2.62 fold
- Fold-Induction Stroke, ino vs. cntrl, Tspan2 (ILMN_60033): 0.54
- Signal Intensity, Tspan2 (ILMN_60033, inosine after stroke): 1363
- Fold-induction CSMNs: Lgals3bp (ILMN_60037, over and above inosine's effect of decreasing stroke-induced changes): 2.60 fold
- Fold-Induction, complement cascade gene Serping1 (ILMN_60046, LCM-captured CSMNs contralateral a stroke): 2.20 fold
- Fold-induction CSMNs: Serping1 (ILMN_60046, over and above inosine's effect of decreasing stroke-induced changes): 2.93 fold
- Fold-Induction Stroke, ino vs. cntrl, Pgk1 (ILMN_60123): 0.65
- Signal Intensity, Pgk1 (ILMN_60123, inosine after stroke): 5869
- Fold-Induction Stroke, ino vs. cntrl, Ndufa8 (ILMN_60239): 0.57
- Signal Intensity, Ndufa8 (ILMN_60239, inosine after stroke): 572
- Fold-Induction Stroke, ino vs. cntrl, Kbtbd9 (ILMN_60252): 0.68
- Signal Intensity, Kbtbd9 (ILMN_60252, inosine after stroke): 1263
- Fold-Induction Stroke, ino vs. cntrl, LOC309016 (ILMN_60417): 0.68
- Signal Intensity, LOC309016 (ILMN_60417, inosine after stroke): 554
- Fold-Induction Stroke, ino vs. cntrl, Bckdhb (ILMN_60448): 0.61
- Signal Intensity, Bckdhb (ILMN_60448, inosine after stroke): 281
- Fold-Induction Stroke, ino vs. cntrl, Rbm18 (ILMN_60511): 0.62
- Signal Intensity, Rbm18 (ILMN_60511, inosine after stroke): 301
- Fold-Induction Stroke, ino vs. cntrl, LOC360618 (ILMN_60542): 0.69
- Signal Intensity, LOC360618 (ILMN_60542, inosine after stroke): 1021
- Fold-Induction Stroke, ino vs. cntrl, Mg87 (ILMN_60584): 0.80
- Signal Intensity, Mg87 (ILMN_60584, inosine after stroke): 1251
- Fold-Induction Stroke, ino vs. cntrl, Ndfip1 (ILMN_60653): 0.80
- Signal Intensity, Ndfip1 (ILMN_60653, inosine after stroke): 362
- Fold-induction CSMNs: Rhoc (ILMN_61063, over and above inosine's effect of decreasing stroke-induced changes): 2.02 fold
- Fold-Induction Stroke, ino vs. cntrl, Pja2 (ILMN_61213): 0.58
- Signal Intensity, Pja2 (ILMN_61213, inosine after stroke): 2360
- Fold-Induction Stroke, ino vs. cntrl, Khdrbs3 (ILMN_61216): 0.57
- Signal Intensity, Khdrbs3 (ILMN_61216, inosine after stroke): 2045
- Fold-Induction Stroke, ino vs. cntrl, Dlgap1 (ILMN_61367): 0.68
- Signal Intensity, Dlgap1 (ILMN_61367, inosine after stroke): 1249
- Fold-Induction, complement cascade gene C1qb (ILMN_61448, LCM-captured CSMNs contralateral a stroke): 1.84 fold
- Fold-Induction Stroke, ino vs. cntrl, LOC500629 (ILMN_61521): 0.59

— US8912144B2, “Method for treating stroke via administration of NEP1-40 and inosine” (Children's Medical Center Corporation, priority 2003, dated 2014)
